# From paper PMC6357742, “Porphyromonas gingivalis in Alzheimer’s disease brains: Evidence for disease causation and treatment with small-molecule inhibitors” (Science Advances, 2019)
# Tests used:
# [1] = test system: SH-SY5Y cells infected with P. gingivalis W83; experiment: AlamarBlue viability of SH-SY5Y cells challenged with P. gingivalis; assay type: cell-based, human; conditions: W83 strain, MOI of 400, 48 hours
# P. gingivalis [2] = experiment: Antimicrobial effects of Aβ on P. gingivalis (LIVE/DEAD BacLight); assay type: cell-based; set-up: dose or concentration left out as unconfirmed; conditions: 37°C, anaerobic, 24 hours
# P. gingivalis [3] = assay type: cell-based
# cathepsin S = cathepsin S (Homo sapiens, UniProt P25774); experiment: Cellular protease profiling; assay type: biochemical
# calpain = experiment: Cellular protease profiling; assay type: biochemical
# tryptase = experiment: Cellular protease profiling; assay type: biochemical
# thrombin = thrombin (Homo sapiens, UniProt P00734); experiment: Cellular protease profiling; assay type: biochemical
# plasmin = plasmin (Homo sapiens, UniProt P00747); experiment: Cellular protease profiling; assay type: biochemical
# FXa = FXa (Homo sapiens, UniProt P00742); experiment: Cellular protease profiling; assay type: biochemical
# FVIIa = target: T1, FVIIa (Homo sapiens, UniProt P08709); experiment: Cellular protease profiling; assay type: biochemical
# T1 sequence (P08709 213-466 limits assumed): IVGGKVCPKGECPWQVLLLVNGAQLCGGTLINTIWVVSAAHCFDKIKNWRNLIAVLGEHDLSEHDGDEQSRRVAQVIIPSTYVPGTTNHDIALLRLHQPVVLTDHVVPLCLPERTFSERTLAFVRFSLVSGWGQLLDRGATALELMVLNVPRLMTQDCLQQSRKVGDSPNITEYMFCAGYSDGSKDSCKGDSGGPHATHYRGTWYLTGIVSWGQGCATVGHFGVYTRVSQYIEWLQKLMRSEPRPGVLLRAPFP
# T1 sequence (P08709 61-212 partner limits assumed): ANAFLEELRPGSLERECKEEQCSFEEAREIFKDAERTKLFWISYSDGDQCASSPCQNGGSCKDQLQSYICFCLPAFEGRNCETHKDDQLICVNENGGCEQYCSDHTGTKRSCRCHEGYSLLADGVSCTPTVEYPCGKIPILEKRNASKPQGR
# BACE1 = BACE1 (Homo sapiens, UniProt P56817); experiment: Cellular protease profiling; assay type: biochemical
# DPP4 = DPP4 (Homo sapiens, UniProt P27487); experiment: Cellular protease profiling; assay type: biochemical
# proteasome = experiment: Cellular protease profiling; assay type: biochemical
# [4] = test system: deubiquitinating peptidases; experiment: Cellular protease profiling; assay type: biochemical
# caspase family enzymes = experiment: Cellular protease profiling; assay type: biochemical
# Kgp [5] = target: T2, Kgp (Porphyromonas gingivalis, UniProt B2RLK2); assay type: biochemical, P. gingivalis; conditions: recovery of enzyme activity following dilution of enzyme/inhibitor complexes
# P. gingivalis W83 = experiment: P. gingivalis oral infection in mice, Experiment 3 (brain qPCR, Aβ1–42 and TNFα ELISA); assay type: in vivo, BALB/c mice; conditions: days 36 to 70
# Kgp [6] = target: Kgp (Porphyromonas gingivalis, UniProt Q51817); assay type: binding, P. gingivalis
# Kgp [7] = target: T2, Kgp; assay type: binding, P. gingivalis; conditions: human oral subgingival plaque, preincubation with COR388
# P. gingivalis [8] = experiment: Kgp-dependent growth of P. gingivalis in defined medium; assay type: cell-based; conditions: 500 nM, over 43 hours
# [9] = Oral pharmacokinetic properties and CNS penetration; conditions: in vivo
# [10] = test system: differentiated SH-SY5Y cells exposed to RgpB and Kgp; experiment: Gingipain-induced aggregation of differentiated SH-SY5Y cells; assay type: cell-based, human; conditions: pretreatment of gingipains; RgpB and Kgp 10 μg/ml, 24 hours
# [11] = 10 and 30 mg/kg oral twice daily
compound,measurement,setting,value
CC(C)[C@H](O)C(=O)N[C@@H](C)C(=O)N[C@@H]1C(=O)N(C)CCc2ccccc21 [semagacestat],protection against P. gingivalis–induced cell death,[1],no protective effect
"Aβ1–42: Recombinant Aβ (1-42) Ultra-Pure, Ammonium Hydroxide (rProtein)",viability of P. gingivalis,P. gingivalis [2],decreased viability
COc1c(N2C[C@@H]3CCCN[C@@H]3C2)c(F)cc2c(=O)c(C(=O)O)cn(C3CC3)c12 [moxifloxacin],protection against P. gingivalis–induced cell death,[1],did not protect the cells
same,development of resistance on repeat passaging,P. gingivalis [3],complete resistance
same,increase of minimum inhibitory concentration (MIC) on passaging,P. gingivalis [3]; 12 passages,over 1000 fold
NCCCC[C@H](NC(=O)C1CCCC1)C(=O)COc1c(F)ccc(F)c1F [COR388],IC50,cathepsin S,> 10 µM
same,IC50,calpain,> 10 µM
same,IC50,tryptase,> 10 µM
same,IC50,thrombin,> 10 µM
same,IC50,plasmin,> 10 µM
same,IC50,FXa,> 10 µM
same,IC50,FVIIa,> 10 µM
same,IC50,BACE1,> 10 µM
same,IC50,DPP4,> 10 µM
same,IC50,proteasome,> 10 µM
same,IC50,[4],> 10 µM
same,IC50,caspase family enzymes,> 10 µM
same,mode of inhibition,Kgp [5],irreversible binding kinetics
same,Aβ1–42 level in brain tissue,P. gingivalis W83; 3 mg/kg oral twice daily,did not reduce
same,P. gingivalis load in brain tissue,P. gingivalis W83; 3 mg/kg oral twice daily,some reduction
same,TNFα level in brain tissue,P. gingivalis W83; 3 mg/kg oral twice daily,did not reduce
same,Aβ1–42 level in brain tissue compared to infected vehicle,P. gingivalis W83; [11],reduced
same,P. gingivalis load in brain tissue compared to infected vehicle,P. gingivalis W83; [11],reduced
same,TNFα level in brain tissue compared to infected vehicle,P. gingivalis W83; [11],reduced
same,Kgp target engagement (COR553 probe binding after preincubation),Kgp [6],block of COR553 activity probe binding
same,Kgp target engagement ex vivo (COR553 probe binding after preincubation),Kgp [7],blocked probe binding to the active site
same,growth of P. gingivalis in defined growth medium,P. gingivalis [8],inhibited the growth
same,development of resistance on repeat passaging,P. gingivalis [3],did not develop
same,CNS penetration,[9],significant CNS penetration
same,oral bioavailability / oral pharmacokinetics,[9]; po,superior oral pharmacokinetic
C[C@H]1c2cccc(O)c2C(=O)C2=C(O)[C@]3(O)C(=O)C(C(N)=O)=C(O)[C@@H](N(C)C)[C@@H]3[C@@H](O)[C@@H]21 [doxycycline],protection against P. gingivalis–induced cell death,[1],did not protect the cells
NC(=O)CI [iodoacetamide],gingipain-induced cell aggregation,[10],prevented gingipain-induced aggregation
